Reference: patent publication US9333233B2, “Methods and compositions for the delayed treatment of stroke” (TARIX PHARMACEUTICALS LTD., priority 2014, dated 2016)

Tests used:
Type in all cases: in vivo
[1] = tested on: rat Transient Middle Cerebral Artery Occlusion (tMCAO) model; assay: Neuroscore (Modified Neurological Rating Scale, mNRS) in rat tMCAO stroke model
Method: (§1) Transient middle cerebral artery occlusion was performed according to the method described R. Schmid-Eisaesser et al. Briefly, the right CCA (Common Carotid Artery) was exposed through a midline neck incision and carefully dissected free from surrounding nerves and fascia —from its bifurcation to the base of the skull. The occipital artery branches of the ECA (External Carotid Artery) were then isolated, and these branches were dissected and coagulated. The ECA was dissected further distally and coagulated along with the terminal lingual and maxillary artery branches, which was then divided. The ICA (Internal Carotid Artery) was isolated and carefully separated from the adjacent vagus nerve, and the pterygopalatine artery was ligated close to its origin with a 5-0 nylon suture (SMI, Belgium). Next a 4-0 silk suture was tied loosely around the mobilized ECA stump, and a 4 cm length of 4-0 monofilament nylon suture (the tip of the suture was blunted by using a flame, and the suture was coated with polylysine, prior to insertion) was inserted through the proximal ECA into the ICA and thence into the circle of Willis, effectively occluding the MCA. The surgical wound was closed and the animals were returned to their cages to recover from anesthesia. One hour and a half after occlusion rats were re-anesthetized, the monofilament was withdrawn to allow reperfusion, the surgical wound was closed and rats were returned to their cages.
Animals were subjected to the mNSS test (Neuroscore) at Day 2, 24 hours post reperfusion. Only animals with an overall score of ≧10 were included in this Example.
Each animal was also subjected to a neuroscore test. The Modified Neurological Rating Scale (mNRS), or Neuroscore, was performed before the operation, on Day 2 and on Day 15, Day 22, Day 29, Day 36 Day 43 and Day 50. The individual making the behavioral assessments was unaware of the drug/dose given (blind test). A total Neuroscore of 18 was possible, with higher scores correlating to worse functioning.
(§2) As in Example 1, each animal was subjected to a neuroscore test. The Modified Neurological Rating Scale (mNRS), or Neuroscore, was performed before the operation as described in Example 1 on day 2, day 29, day 43, day 50, day 57, day 64 and day 71. The individual making the behavioral assessments was unaware of the drug/dose given (blind test).
as §2, with “Examples 1 and 2,” for “Example 1,”, “64, day 71. Day 78,” for “64”, “85.” for “71.”

[2] = tested on: rat Transient Middle Cerebral Artery Occlusion (tMCAO) model; assay: Blood flow in the brain cortex (Flow-R Laser Doppler) in rat tMCAO stroke model; conditions: for enhanced blood flow as compared to vehicle controls: Example 1 first phase, day 50
Method: as §1
(§3) Evaluation of the blood flow in the brain cortex and vessel constriction was carried out using a Flow-R Laser Doppler system, in which intracranial blood flow and vessel diameter (constriction/dilation) was monitored.

[3] = tested on: rat Transient Middle Cerebral Artery Occlusion (tMCAO) model; assay: Body swing test in rat tMCAO stroke model
Method: as §1
Animals were also subjected to a body swing test. Each rat was held approximately one inch from the base of its tail. It was then elevated to an inch above a surface of a table. The rat was held in the vertical axis, defined as no more than 10° to either the left or the right side. A swing was recorded whenever the rat moved its head out of the vertical axis to either side. Before attempting another swing, the rat had to return to the vertical position for the next swing to be counted, Twenty (20) total swings were counted. A normal rat typically has an equal number of swings to either side. Following focal ischemia, the rat tends to swing to the contralateral side (left side in this Example). Body swing scores were expressed as a percentage of […] over total swings.
Animals were also subjected to a body swing test as described in Example 1 on days 29, 43, 50, 57, 64 and 71.
Animals were also subjected to a body swing test as described in Example 1 on days 29, 43, 50, 57, 64, 71, 78 and 85.

[4] = tested on: rat Transient Middle Cerebral Artery Occlusion (tMCAO) model; assay: Stepping test (forelimb akinesia) in rat tMCAO stroke model
Method: as §1
Animals were tested for forelimb akinesia in a stepping test (ST). The animal was held by its hind limbs fixed with one hand and the forelimb not to be monitored with the other, while the unrestrained fore-paw touched the table. The number of adjusting steps were counted while the animal is moved, sideways along the table surface (85 cm in approximately five seconds), in the forehand & backhand direction for both forelimbs.
Animals were also tested for forelimb akinesia in a stepping test (ST) as described in Example 1 on days 29, 43, 50, 57, 64 and 71.
Animals were also tested for forelimb akinesia in a stepping test (ST) as described in Example 1 on days 29, 43, 50, 57, 64, 71, 78 and 85.

[5] = tested on: rat Transient Middle Cerebral Artery Occlusion (tMCAO) model; assay: Blood vessel diameter (Flow-R Laser Doppler) in rat tMCAO stroke model
Method: as §1, §3

[6] = tested on: rat Transient Middle Cerebral Artery Occlusion (tMCAO) model; assay: Limb placement test in rat tMCAO stroke model
Method: as §1
Animals were subjected to a limb placement test. The limb placing tests were divided into both forelimb and hindlimb tests. For the forelimb-placing test, the examiner held the rat close to a tabletop and scored the rat's ability to place the forelimb on the tabletop in response to whisker, visual, tactile or proprioceptive stimulation. Similarly, for the hindlimb placing test, the examiner assessed the rat's ability to place the hindlimb on the tabletop in response to tactile and proprioceptive stimulation. Separate sub-scores are obtained for each mode of sensory input and added to give total scores (for the forelimb placing test: 0=normal, 12=maximally impaired; for the hindlimb placing test: 0=normal; 6=maximally impaired). Scores were given in half-point increments (see below).
Forelimb placing test (0-12);
Visual placing (forward (0-2), sideways (0-2))
Tactile placing (dorsal (0-2), lateral (0-2))
Proprioceptive placing (0-2)
Animals were also subjected to a limb placement test as described in Example 1 on days 29, 43, 50, 57, 64 and 71.
Animals were also subjected to a limb placement test as described in Example 1 on days 29, 43, 50, 57, 64, 71, 78 and 85.

[7] = tested on: rat Transient Middle Cerebral Artery Occlusion (tMCAO) model; assay: Cylinder test of motor function in rat tMCAO stroke model; conditions: Example 2; 50 μg/kg SC daily from day 29; day 57 (day 26 all animals ~0.3; vehicle day 57 ~0.4)
Method: Transient middle cerebral artery occlusion was performed according to the method described R. Schmid-Eisaesser et al. Briefly, the right CCA (Common Carotid Artery) was exposed through a midline neck incision and carefully dissected free from surrounding nerves and fascia —from its bifurcation to the base of the skull. The occipital artery branches of the ECA (External Carotid Artery) were then isolated, and these branches were dissected and coagulated. The ECA was dissected further distally and coagulated along with the terminal lingual and maxillary artery branches, which was then divided. The ICA (Internal Carotid Artery) was isolated and carefully separated from the adjacent vagus nerve, and the pterygopalatine artery was ligated close to its origin with a 5-0 nylon suture (SMI, Belgium). […]
The number of wall contacts performed independently with the left and right forepaw were counted and noted up to a total of 20 wall contacts per animal per session, and only supporting contacts were counted (i.e., full appositions of the paws with open digits to the cylinder walls).

[8] = Example 3, SC daily from day 29, TXA127 100-1,000 μg/kg, TXA302 1-500 μg/kg, by day 43, maintained through day 85
[9] = Example 1 second phase, 500 ug/kg SC from day 51, measured day 108
[10] = Example 3, SC daily from day 29, TXA127 100-1,000 μg/kg, TXA302 1-500 μg/kg, by day 43
[11] = Example 3, SC daily from day 29, TXA127 100-1,000 μg/kg, TXA302 1-500 μg/kg, by day 43, maintained through Day 85
[12] = Example 3, SC daily from day 29, TXA127 100-1,000 μg/kg, TXA302 1-500 μg/kg, by day 43, maintained or improved through day 85

Asp^1-Arg^2-Val^3-Tyr^4-Ile^5-His^6-Pro^7 (DRVYIHP; listed as Homo sapiens) [TXA127]
neuroscore as compared to vehicle control animals ([1]; Example 1 first phase, 100, 300, 500 μg/kg SC daily or Alzet pump, started 24 hours after tMCAO, all treatment groups by day 15, maintained through day 50): statistically significant reduction in neuroscore | neuroscore as compared to vehicle control animals ([1]; Example 1 second phase, 500 ug/kg SC daily, first treatment day 51 after tMCAO, by day 65): statistically significant improvement | neuroscore as compared to vehicle control animals [1, 8]: statistically significant reduction in neuroscore | enhanced blood flow as compared to vehicle controls ([2]; continuous infusion via Alzet pump): ~30% | enhanced blood flow as compared to vehicle controls ([2]; subcutaneously administered, each treatment group): ~35% | blood flow ratio as compared to vehicle control group [2, 9]: improved | performance in body swing test ([3]; Example 1 first phase, 100, 300, 500 μg/kg SC or Alzet, started 24 hours after tMCAO, by day 15, statistical significance by day 22 in some groups, day 29 in all treatment groups): improvement in performance | performance in body swing test ([3]; Example 1 second phase, 500 ug/kg SC daily from day 51, as early as day 58, maintained throughout observation period): trend toward improved performance | performance in body swing test [3, 10]: statistically significant improvement in performance | performance in stepping test as compared to vehicle control animals ([4]; Example 1 first phase, 100, 300, 500 μg/kg SC or Alzet, started 24 hours after tMCAO, all treatment groups by day 22): significant improvement in performance | performance in stepping test as compared to vehicle control group ([4]; Example 1 second phase, 500 ug/kg SC daily from day 51, by day 65, increasing significance by day 86): statistically significant improvement in performance | performance in stepping test as compared to vehicle control animals [4, 11]: significant improvement in performance | improvement in blood vessel diameter as compared to vehicle controls ([5]; Example 1 first phase, continuous infusion via Alzet pump, day 50): ~40% | enhanced blood vessel diameter, larger than vehicle control animals ([5]; Example 1 first phase, subcutaneously administered, each treatment group (100, 300, 500 μg/kg), day 50): approximately 20% | vessel diameter as compared to vehicle control group [5, 9]: improved | performance in forelimb placement test as compared to vehicle control ([6]; Example 1 first phase, 100, 300, 500 μg/kg SC or Alzet, started 24 hours after tMCAO, all treatment groups by day 15, continued through day 50): statistically significant improvements in performance | performance in forelimb placement test ([6]; Example 1 second phase, 500 ug/kg SC daily from day 51, beginning on day 72, trend as early as day 58): statistically significant improvement in performance | performance in limb placement test as compared to vehicle control animals [6, 12]: statistically significant improvements in performance

Ala^1-Arg^2-Val^3-Ser^4-Ile^5-His^6-Cys^7 (ARVSIHC) [TXA302, angiotensin (1-7) peptide]
neuroscore as compared to vehicle control animals ([1]; Example 2, 50 μg/kg SC daily from day 29 (28 days post-tMCAO), by day 43, maintained through day 71): statistically significant reduction in neuroscore | neuroscore as compared to vehicle control animals [1, 8]: statistically significant reduction in neuroscore | cylinder test ratio of left paw to right paw contacts [7]: ~0.75 | performance in body swing test ([3]; Example 2, 50 μg/kg SC daily from day 29, by day 50, maintained through Day 71): statistically significant improvement in performance | performance in body swing test [3, 10]: statistically significant improvement in performance | performance in stepping test as compared to vehicle control animals ([4]; Example 2, 50 μg/kg SC daily from day 29, by day 43, maintained through Day 71): significant improvement in performance | performance in stepping test as compared to vehicle control animals [4, 11]: significant improvement in performance | performance in limb placement test as compared to vehicle control animals ([6]; Example 2, 50 μg/kg SC daily from day 29, by day 43, maintained or improved through day 71): statistically significant improvements in performance | performance in limb placement test as compared to vehicle control animals [6, 12]: statistically significant improvements in performance
